Assay results reported in article PMC1891437, “Hexose-6-phosphate Dehydrogenase Modulates 11β-Hydroxysteroid Dehydrogenase Type 1-Dependent Metabolism of 7-keto- and 7β-hydroxy-neurosteroids” (PLoS ONE, 2007).

Tests used:
11β-HSD1 [1] = molecular target: T1, 11β-HSD1 (Homo sapiens, UniProt P28845); assay: 11β-HSD1 dehydrogenase activity (oxidation of cortisol) in lysates of HEK-293 cells expressing recombinant enzyme, competition by 7-oxygenated neurosteroids; format: biochemical; conditions: HEK-293 lysates; 50 nM [3H]-cortisol, 500 µM cofactor NAD+; mean±S.D., four experiments
T1 construct: expressed in transfected cells; host or cells: HEK-293 (transient, Ca2+-phosphate precipitation)
Protocol: (§1) HEK-293 cells were cultured in Dulbecco's Modified Eagle's Medium (DMEM) supplemented with 10% fetal calf serum (FCS), 50 units/ml penicillin, 50 µg/ml streptomycin and 2 mM glutamine. Cells were transfected with expression plasmids for FLAG-tagged 11β-HSD1 and myc-tagged H6PDH or pcDNA3.1 control using the Ca^2+-phosphate precipitation method. The epitope tags had no effect on enzymatic activities or expression levels of 11β-HSD1 and H6PDH [10], [49]. A total amount of 8 µg DNA was used per 10 cm culture dish or 2 µg DNA per well of a six-well culture plate.
(§2) The enzyme activity in intact cells was measured as described. Briefly, HEK-293 cells, grown in 10 cm culture dishes and transfected with FLAG-tagged 11β-HSD1 alone or co-transfected with myc-tagged H6PDH, were detached 24 h post-transfection and distributed in 96-well plates at a density of 30′000–40′000 cells per well. After 16 h, cells were incubated in serum- and steroid-free medium and the conversion of radiolabeled cortisone to cortisol (or the reverse activity) was determined upon incubation for 1 h at 37°C in a total volume of 50 µl containing 200 nM cortisone (or cortisol). The reaction was stopped by adding methanol containing 2 mM unlabeled cortisone and cortisol, followed by separation of steroids by TLC and scintillation counting. Measurements with freshly prepared cell lysates were carried out in the presence of [1,2,6,7-^3H]-cortisone and cofactor NADPH at final concentrations of 200 nM and 500 µM for the reductase reaction and with 50 nM [1,2,6,7-^3H]-cortisol and 500 µM cofactor NAD^+ for the dehydrogenase reaction, respectively, in the absence or presence of various concentrations of competing 7-oxygenated neurosteroid ligands. The concentration of dimethylsulfoxide or methanol from the solvent was 0.1% in all reactions and had no effect on enzyme activity. Data (mean±SD) were obtained from four independent experiments and were calculated using the Data Analysis Toolbox (Elsevier MDL, Allschwil, Switzerland).

11β-HSD1 [2] = molecular target: T1, 11β-HSD1; assay: 11β-HSD1 reductase activity (reduction of cortisone) in lysates of HEK-293 cells expressing recombinant enzyme, competition by 7-oxygenated neurosteroids; format: biochemical; conditions: HEK-293 lysates; 200 nM [3H]-cortisone, 500 µM NADPH; mean±S.D., four experiments
Protocol: as §1, §2

11β-HSD1/H6PDH = molecular target: T2, 11β-HSD1/H6PDH (Homo sapiens, UniProt P28845); assay: Steady state ratio of cortisone to cortisol in intact HEK-293 cells coexpressing 11β-HSD1 and H6PDH; format: cell-based; conditions: 11β-HSD1/H6PDH cells, 16 h, 20 µM inhibitor, n = 4
T2 construct: expressed in transfected cells; host or cells: HEK-293 (transient co-transfection, Ca2+-phosphate precipitation)
Protocol: as §1
as §2, with “After 16 h, cells were incubated in serum- and steroid-free medium and the conversion of radiolabeled cortisone to cortisol (or the reverse activity) was determined upon incubation for 1 h at 37°C in a total volume of 50 µl containing 200 nM cortisone (or cortisol).” left out

11β-HSD1 [3] = molecular target: T1, 11β-HSD1; assay: Steady state ratio of cortisone to cortisol in intact HEK-293 cells expressing 11β-HSD1; format: cell-based; conditions: 16 h, 20 µM inhibitor
Protocol: as §1, §2

11β-HSD1 [4] = molecular target: T1, 11β-HSD1; assay: 7-keto-steroid reductase and 7-hydroxy-steroid dehydrogenase activity in intact transfected HEK-293 cells (GC-MS); format: cell-based; conditions: 1 µM inhibitor, intact HEK-293 cells
Protocol: as §1
HEK-293 cells were seeded in six-well plates at a density of 900′000 cells per well. After 24 h, cells were transfected with expression vector for 11β-HSD1 or co-transfected with vectors for 11β-HSD1 and H6PDH. An empty pcDNA3.1 plasmid was used in transfections lacking H6PDH to adjust total DNA amounts in all samples. The medium was replaced 18 h post-transfection by steroid-free medium followed by addition of 1 µM of the steroid substrate to be tested. […] After incubation for various time intervals, reactions were terminated by addition of an equal volume of dichloromethane, containing 500 ng medroxyprogesterone as an internal standard. Since radiolabeled C7-oxygenated metabolites were not commercially available, we applied GC-MS for detection. […]

[5] = 11β-HSD1 cells, 200 nM radiolabeled cortisone, n = 4

T1 sequence (P28845 whole entry): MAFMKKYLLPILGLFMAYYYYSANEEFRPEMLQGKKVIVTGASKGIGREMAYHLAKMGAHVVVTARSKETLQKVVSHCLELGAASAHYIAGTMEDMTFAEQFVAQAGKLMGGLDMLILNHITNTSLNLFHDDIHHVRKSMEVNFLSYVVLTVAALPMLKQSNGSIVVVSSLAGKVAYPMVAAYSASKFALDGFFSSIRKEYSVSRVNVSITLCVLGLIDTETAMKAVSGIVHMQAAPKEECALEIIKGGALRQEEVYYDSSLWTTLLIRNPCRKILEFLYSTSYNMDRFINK
T2 sequence (P28845 whole entry): as above

SMILES | IC50 (11β-HSD1 [1]) | IC50 (11β-HSD1 [2]) | further results
C[C@]12CC[C@H](O)C[C@@H]1CC(=O)[C@@H]1[C@@H]2CC[C@]2(C)C(=O)CC[C@@H]12 [5α-androstane-3β-ol-7,17dione, 5α-androstane-3β-ol-7,17-dione] | 18 ± 1 µM | 0.5 ± 0.11 µM | 
C[C@]12CC[C@H](O)CC1=CC(=O)[C@@H]1[C@@H]2CC[C@]2(C)C(=O)CC[C@@H]12 [7-ketodehydroepiandrosterone] | 29 ± 5 µM | 0.82 ± 0.07 µM | 
CC(=O)[C@H]1CC[C@H]2[C@@H]3C(=O)C=C4C[C@@H](O)CC[C@]4(C)[C@H]3CC[C@]12C [7-ketopregnenolone] | 5.4 ± 0.5 µM | 0.68 ± 0.11 µM | 
C[C@]12CC[C@H](O)CC1=C[C@@H](O)[C@@H]1[C@@H]2CC[C@]2(C)C(=O)CC[C@@H]12 [7α-hydroxydehydroepiandrosterone] | 16 ± 1 µM | 45 ± 2 µM | 
C[C@]12CC[C@H](O)CC1=C[C@H](O)[C@@H]1[C@@H]2CC[C@]2(C)C(=O)CC[C@@H]12 [7β-hydroxydehydroepiandrosterone] | 0.54 ± 0.05 µM | 7.7 ± 0.8 µM | 
CC(=O)[C@H]1CC[C@H]2[C@@H]3[C@@H](O)C=C4C[C@@H](O)CC[C@]4(C)[C@H]3CC[C@]12C [7β-hydroxypregnenolone] | 1.34 ± 0.49 µM | 2.4 ± 0.5 µM | 
O=C1CC(c2ccccc2)Oc2ccccc21 (stereo not shown) [Flavanone, flavanone] |  |  | cortisol, percentage of total glucocorticoid (oxidation of cortisol to cortisone) (11β-HSD1/H6PDH; 200 nM radiolabeled cortisol): 90.9%; cortisone, percentage of total glucocorticoid (oxidation of cortisol to cortisone) (11β-HSD1/H6PDH; 200 nM radiolabeled cortisol): 9.1%; cortisol, percentage of total glucocorticoid (reduction of cortisone to cortisol) (11β-HSD1/H6PDH; 200 nM radiolabeled cortisone): 91.7%; cortisone, percentage of total glucocorticoid (reduction of cortisone to cortisol) (11β-HSD1/H6PDH; 200 nM radiolabeled cortisone): 8.3%; cortisol, percentage of total glucocorticoid (oxidation of cortisol to cortisone) (11β-HSD1 [3]; 11β-HSD1 cells, 200 nM radiolabeled cortisol, n = 4): 61.2%; cortisol, percentage of total glucocorticoid (reduction of cortisone to cortisol) (11β-HSD1 [3]; [5]): 74.1%; cortisone, percentage of total glucocorticoid (reduction of cortisone to cortisol) (11β-HSD1 [3]; [5]): 25.9%; effect of inhibitor on the steady state ratio of glucocorticoids (11β-HSD1 [3]; HEK-293 cells with 11β-HSD1 alone or with H6PDH): little or no effect on the steady state ratio of glucocorticoids
C1CCc2nnc(C34CC5CC(CC(C5)C3)C4)n2CC1 [T0504, 5H-1,2,4-triazolo(4,3-a)azepine,6,7,8,9-tetrahydro-3-tricyclo(3·3·1·13·7)dec-1-yl] |  |  | effect of inhibitor on 11β-HSD1-dependent metabolism of 7α-hydroxy-DHEA (11β-HSD1 [4]; 1 µM 7α-hydroxy-DHEA substrate, 3 h): prevented the formation of 7β-hydroxy-DHEA and 7-keto-DHEA; effect of inhibitor on 11β-HSD1-dependent metabolism of 7-ketopregnenolone and 5α-androstane-3β-ol-7,17-dione (11β-HSD1 [4]; 1 µM substrate, 3 h or 6 h): almost completely abolished
